Columns and labels:
[1] = system: Patients with Major Depressive Disorder (MDD); assay: Case Study 1: outpatient treatment of chronic suicidal ideation and behavior; type: in vivo, human
Protocol: Treatment of Chronic Suicidal Ideation and Behavior in Patients with Major Depressive Disorder (MDD). A married person and parent of three, presented to the outpatient clinic Jul. 16, 2019 to establish care with a new psychiatrist for management of their depression, mood swings, and persistent suicidal ideations. They reported that their current medications, bupropion XL 300 mg q daily, valproic acid 500 mg BID, quetiapine 200 mg daily, and venlafaxine XR 150 mg BID, modafinil 200 mg q AM and noon, buspirone 10 mg TID are not helping. They had been experiencing acute daily changes in mood consisting of unhappiness, irritability, and anger with lead to arguments with their spouse and family. They had been suffering from persistent depression, self-harm, and suicidal impulses. They had three previous suicide attempts resulting in hospitalization, the most recent being six years prior. • During the Initial Psychiatric Evaluation, they were alert and oriented to person, place, time, and situation. […]

[2] = system: Patients with Major Depressive Disorder (MDD); assay: Case 2: outpatient treatment of persistent suicidal ideation; type: in vivo, human
Description: Treatment of Chronic Suicidal Ideation and Behavior in Patients with Major Depressive Disorder (MDD).
A person presented to the outpatient psychiatric clinic accompanied by their spouse and child after being referred by a friend. Their condition had not improved over the past several years despite ongoing psychiatric treatment including in-patient hospitalizations and multiple medication failures. They reported they had been, “feeling the stress”, experiencing racing and ruminating thoughts, difficulty with conversation, and panic. They expressed persistent suicidal ideation. They denied current or past self-injurious behavior.
• Sensorium: Alert and oriented to person, place, time, situation • Appearance: Casually dressed, well kempt, appeared older than stated age, thin to normal body habitus • Affect: Constricted, tearful at times • Mood: Depressed • Speech: Normal rate, tone, and rhythm. Louder when irritable and argumentative • Thought Content: Passive suicidal ideation, no delusions. • Thought Process: Coherent, logical, mildly circumstantial. • Perception: No auditory or visual hallucinations • Memory: Intact • Abstract Thinking: Intact • Judgment: Fair to good • Insight: Good
During their initial psychiatric evaluation, they were diagnosed with Bipolar Disorder, Unspecified; Rule out Amphetamine-induced psychosis due to their intermittent paranoia, impulsivity, and agitation. […]

CCc1nn(CCCN2CCN(c3cccc(Cl)c3)CC2)c(=O)n1CCOc1ccccc1 [nefazodone, 1-(3-[4-(3-chlorophenyl)piperazin-1-yl]propyl)-3-ethyl-4-(2-phenoxyethyl)-1H-1,2,4-triazol-5 (4H)-one]
suicidal ideations after forgetting and running out of nefazodone ([1]; Nov. 11, 2019, treatment interrupted): more suicidal ideations | side effect reported ([1]; suspected to be caused by increase in nefazodone to 200 mg BID): drowsiness | suicidal thoughts after restarting nefazodone ([2]; nefazodone restarted and slightly increased, close follow up): rapid disappearance | suicidal ideation after stopping nefazodone ([2]; nefazodone stopped for several weeks, after eight months of stability): having suicidal ideation

— patent publication US20240350483A1, “COMBINATION THERAPY FOR THE TREATMENT OF PSYCHIATRIC DISORDER” (GSKB Pharmaceuticals, LLC, priority 2023, published 2024)
